Test system: HT29 cells
Test: Combination study with standard chemotherapy agents, Combination Index (Chou and Talalay)
Assay type: cell-based, human
Details: preliminary results
Experimental: Anticancer drugs were tested around their EC50 in […] cell line, The general assay procedure is the same as described in example 53 for compound XIX-3. Loewe additivity model: The experimental data are analyzed by using CalcuSyn (Biosoft, Stapleford, UK), a computer program based on the method of Chou and Talalay. Briefly, the dose-effect curves for each drug or drug combination were converted to median-effect plots with CalcuSyn. Then, a combination index (CI) value for each experimental combination was calculated on the basis of the following equation: [formula] Where for n=2 (combination of 2 compounds): D1 and D2 are the doses of drug 1 and drug 2 that have x effect when each drug is used alone d1 and d2 are the doses of drug 1 and drug 2 that have the same x effect when they are used in combination. [table] [table]

CCN(CC)C1CCN(C(C)c2cc(-c3ccccc3)nc3ccccc23)CC1.Cl.Cl (centres unmarked) [XIX-3, 2-phenyl-4-{1-[4-(N,N-diethylamino)piperidin-1-yl]-eth-1-yl}quinoline dihydrochloride]
Combination effect with standard chemotherapy agents (HT29 cells): Synergy Effect | Combination Index (CI) (XIX-3 at 18 μM in combination with well described anticancer drugs, HT-29): < 1
